Literature values, collected in US20030125233A1, “Use of urokinase inhibitors for the treatment and/or prevention of pulmonary hypertension and/or cardiac remodelling” (priority 2000, published 2003).

Key:
[1] = tested on: angiogenesis/capillary network formation; conditions: Alliegro et al. 1991
[2] = tested on: tumor metastasis; conditions: Kellen et al. 1988

N=C(N)NC(=O)c1nc(Cl)c(N)nc1N [amiloride]
angiogenesis/capillary network formation in vitro [1]: inhibit
tumor metastasis in vivo [2]: inhibit
